Reference: patent publication US20110014273A1, “Method of Treating BCC” (priority 2009, published 2011)
≈ marks a conversion by molar mass, not a printed value.

Assays:
[1] = system: P. aeruginosa MMX 1609; test: Susceptibility testing (MIC at 35° C.); format: cell-based; settings: Pseudomonas aeruginosa, MMX1609
Protocol: (§1) From a previous susceptibility testing experiment, the liposomal test batches and control tobramycin MIC values are shown in Table 5 below. The time-kill test is conducted using the test agents shown in bold print in Table 5: [table]

[2] = system: B. cepacia ATCC 25608; test: Susceptibility testing (MIC at 35° C.); format: cell-based; settings: Burkholderia cepacia, ATCC25608
Protocol: as §1

[3] = system: P. aeruginosa ATCC 27853; test: Susceptibility testing (MIC at 35° C.); format: cell-based; settings: Pseudomonas aeruginosa, ATCC27853
Protocol: as §1

[4] = system: P. aeruginosa MMX 1609; settings: at 35° C.; cited from earlier work
[5] = system: P. aeruginosa ATCC 27853; settings: at 35° C.; cited from earlier work
[6] = system: B. cepacia ATCC 25608; settings: at 35° C.; cited from earlier work

Compound: NC[C@H]1O[C@H](O[C@H]2[C@H](O)[C@@H](O[C@H]3O[C@H](CO)[C@@H](O)[C@H](N)[C@H]3O)[C@H](N)C[C@@H]2N)[C@H](N)C[C@@H]1O [Free tobramycin (Sigma), tobramycin]
- MIC [1]: 0.5 µg/mL (≈ 1.07 µM)
- MIC [2]: > 64 µg/mL
- MIC [3]: 0.5 µg/mL (≈ 1.07 µM)

Compound: NC[C@H]1O[C@H](O[C@H]2[C@H](O)[C@@H](O[C@H]3O[C@H](CO)[C@@H](O)[C@H](N)[C@H]3O)[C@H](N)C[C@@H]2N)[C@H](N)C[C@@H]1O [tobramycin]
- MIC, CLSI QC range [4]: (0.25-1) μg/mL
- MIC, CLSI QC range [5]: 0.25 to 1 µg/mL
- MIC, CLSI QC range [6]: (0.12-1) μg/mL
